Reference: patent US10647680B2, “Urea compound, preparation method therefor and medical use thereof” (Ancureall Pharmaceutical (Shanghai) Co., Ltd., priority 2016, dated 2020)
Structures can show the parent of a compound that is named as a salt. Where two headings read alike, the source gives them in different places.

Legend:
[1] = Long-term oral toxicity in mice, effect on blood cells; assay type: in vivo, mouse; conditions: ICR mice; for mortality rate / weight reduced compared with the control group: oral once a day, to the 40th day
Description: Study on the long-term oral toxicity in mice was performed with compound 77 of the present invention as a representative example.
Procedure: 6-week-old ICR mice purchased from Shanghai Sippr-BK Experimental Animal Co., Ltd. were selected with half males and half females, and the animals were randomly divided with 6 mice each group. The test and control groups were orally given once a day for 40 consecutive days, respectively. The body weight and physiological and pathological features of the mice were observed and recorded every day. The drug doses of the test group were 500 mg/kg, 350 mg/kg, and 250 mg/kg of the methanesulfonate of compound 77 in 20% HP-β-CD clear aqueous solution, respectively (the formulation method was the same as that of the test example 10), and the control group was the 20% HP-β-CD aqueous solution.

[2] = Metabolic stability in rat liver microsomes; assay type: in vitro ADME; conditions: rat liver microsome
Description: The experiment on the compound stability in rat liver microsomes was performed using compound 77 of the present invention as a representative example.
Procedure: The mixed reaction solution containing reducing coenzyme II (1 mg/ml, Roche 10621706001), rat liver microsomes (0.5 mg/ml, BD Gentest), phosphate buffer (0.1M) and ionized water was prepared according to a certain ratio, and then the reaction solution was placed in a 37° C. water bath and preheated for 2 minutes. A certain amount of compound 77 or reference substance was added to the prepared mixed reaction solution to start the reaction. In the final reaction system, the concentration of compound 77 or the positive control midazolam (National Institutes for Food and Drug Control) was 2 uM, and water was used instead of reducing coenzyme II as a negative control. […] The ratio of mean peak area of compound 77 to the mean peak area of internal standard at each time point was calculated, and the percentage of this ratio to that at time point 0 was calculated, and then change in this percentage was used to indicate the metabolic stability of the compound 77. […]

[3] = Bidirectional transmembrane transport and P-gp efflux in Caco-2 monolayer cell model; assay type: in vitro ADME; conditions: human
Description: (§1) The Caco-2 cell transport experiment was performed using compound 77 of the present invention as a representative example.
(§2) Main procedure: Caco-2 cells (ATCC, HTB-37) were cultured in high-glucose DMEM culture medium (Hyclone) containing 10% fetal calf serum (GIBCO) and penicillin-streptomycin (100 units/mL each) (Sigma). Cells were cultured at 37° C. in an incubator containing 5% CO2. In the transport experiment, Caco-2 cells were inoculated on a filter of a 12-well Transwell plate at a density of 2×10^5 cells/well (Coming Costar, catalog #3401, 1.12 cm^2, 0.4 um of pore size). After inoculation, the Caco-2 cells would form intact cell monolayers after 21 days, including P-gp efflux transporter expression and transepithelial cell resistance (TEER) formation. During the period, the culture medium was replaced once every other day. The volume of culture medium at the transwell membrane Apical Side (A) and Basolateral Side (B) were 0.5 mL and 1.5 mL, respectively. Before the transport experiment (day 21), the preheated HBSS buffer (137 mM NaCl, 4.17 mM NaHCO3, 0.34 mM Na2HPO4, 5.37 mM KCl, 0.44 mM KH2PO4, 1.26 mM CaCl2, 0.49 mM MgCl2, 0.41 mM MgSO4, 5.55 Mm D-Glucose, 10 mM HEPES, pH 7.4) was used firstly to wash Caco-2 cell monolayers for three times, and placed to at 37° C. for incubation for 30 minutes, then TEER values were determined using a cell resistometer (Millicell-ERS2) to confirm the integrity and compactness of the cell monolayers. When the HBSS buffer solution on the transmembrane A-side or B-side was replaced with the test compound, the transport experiment was started.
(§3) Finally, after incubation at 37° C. for 2 hours, the transport experiment was terminated and 50 uL of sample solution was taken from both sides of the Transwell filter membrane separately and added to 100 μL of acetonitrile comprising internal standard compound and mixed well, then centrifuged at 13000 rpm, 4° C. for 10 min, and finally 10 μL (or a specific volume) of supernatant was used for LC-MS/MS sample analysis.
(§4) For each compound, transport experiments in the A-B and B-A directions had three replicates, i.e. n=3.
(§5) LC-MS/MS Sample Analysis: The high performance liquid chromatography (HPLC) system used in this research consisted of two pumps (Shimadzu LC-20AD) and an autosampler (Shimadzu SIL-20AC). The HPLC system was connected in series with an API 4000 triple quadrupole mass spectrometer (Applied Biosystems). The API 4000 triple quadrupole mass spectrometer was equipped with an electrospray ionization (ESI) source. Ultrapurified nitrogen was used as curtain gas, GAS1, GAS2, and collision gas, at flow rates of 20 L/h, 55 L/h, 65 L/h, and 6 L/hr, respectively. The atomization temperature of the ion source was set to 500° C. Data was collected using the software Analyst 1.5.
(§6) Data analysis: The apparent permeability coefficient (Papp) can be calculated by the rate at which a compound permeates the monolayer of Caco-2 cells. Its value is related to the absorption of the compound in vivo. After concentrations at A side and B side were determined by LC-MS/MS, the Papp value in the A-B or B-A direction was calculated according to the following formula: Papp(A→B) or Papp(B→A)=(dQ/dt)/(A*C0)=(C2h*V)/(t*π2*C0)
(§7) In the above formula, dQ/dt is the permeation rate, i.e. the amount of compound that permeated in the dt time, C0 is the initial concentration of drug on the administration side, and A is the surface area of the cell monolayer, i.e. the membrane area.
(§8) After obtaining the Papp (A→B) and Papp (B→A) values of the compound, the Efflux Ratio (ER) of the compound could be calculated by the following formula: Efflux Ratio(ER)=Papp(B−A)/Papp(A−B).
(§9) When the ratio of efflux was >2, the compound could be considered as the substrate of the efflux transporter.

P-gp = test: as above; assay type: in vitro ADME; conditions: human, Caco-2, pH 7.4; Concentration 10, Inhibitor − (without P-gp inhibitor GF120918); read-out: Efflux Ratio Papp (B→A)/Papp (A→B)
Description: as §1, §2, §3, §4, §5, §6, §7, §8, §9

[4] = oral once a day for 40 days, 250-500 mg/kg

COCCOc1ccc2c(c1)ncn2-c1ccc(NC(=O)Nc2cc(C(C)(C)C)n[nH]2)cc1 [Compound 77 Mesylate, 1-(5-tert-butyl-2H-pyrazol-3-yl)-3-{4-[5-(2-methoxyl-ethoxyl)-benzimidazol-1-yl]-phenyl}-urea]
effect on the number of other blood cells [1, 4]: no significant effect | reticulocytes decreased by [1, 4]: 10%-30% | mortality rate ([1]; 250 mg/kg): 0% | weight reduced compared with the control group ([1]; 250 mg/kg): 8.2% | mortality rate ([1]; 350 mg/kg): 16.7% | weight reduced compared with the control group ([1]; 350 mg/kg): 23.1% | mortality rate ([1]; 500 mg/kg): 66.7% | weight reduced compared with the control group ([1]; 500 mg/kg): 34.7%

COCCOc1ccc2c(c1)ncn2-c1ccc(NC(=O)Nc2cc(C(C)(C)C)n[nH]2)cc1 [Compound 77, 1-(5-tert-butyl-2H-pyrazol-3-yl)-3-{4-[5-(2-methoxyl-ethoxyl)-benzimidazol-1-yl]-phenyl}-urea]
elimination rate constant ([2]; 2 uM): 0.0031 | half-life at 2 uM ([2]; rat liver microsomes): 3.73 h | Papp A→B at 2 h ([3]; Caco-2, pH 7.4, Caco-2 monolayer cell model, transmembrane permeability, read-out: Papp(A→B) value (conclusions under the table)): 1 to 10 ×10⁻⁶ cm/s | Papp B→A at 2 h ([3]; Caco-2, pH 7.4, Concentration 10, Inhibitor − (without P-gp inhibitor GF120918)): 13.1 ×10⁻⁶ cm/s | Papp A→B at 2 h ([3]; Caco-2, pH 7.4, Concentration 10, Inhibitor − (without P-gp inhibitor GF120918), read-out: Papp (A→B)): 2.24 ×10⁻⁶ cm/s | efflux ratio at 2 h (P-gp): 5.8
